The text below walks through data of patent US4672066A, “Derivatives of 4-acetyl-3-hydroxy-2-alkyl-phenoxycarboxylic acids” (Hoffmann-La Roche Inc., priority 1985, dated 1987).

Read-outs that look alike come from different tables or passages of the source.

For one experiment, the target named is T1, TXA2 synthase (Homo sapiens, UniProt P24557).
T1 construct: microsomal fractions from human platelets as enzyme source; from tissue; host or cells: microsomal fraction of human platelets
T1 sequence (P24557 1-533): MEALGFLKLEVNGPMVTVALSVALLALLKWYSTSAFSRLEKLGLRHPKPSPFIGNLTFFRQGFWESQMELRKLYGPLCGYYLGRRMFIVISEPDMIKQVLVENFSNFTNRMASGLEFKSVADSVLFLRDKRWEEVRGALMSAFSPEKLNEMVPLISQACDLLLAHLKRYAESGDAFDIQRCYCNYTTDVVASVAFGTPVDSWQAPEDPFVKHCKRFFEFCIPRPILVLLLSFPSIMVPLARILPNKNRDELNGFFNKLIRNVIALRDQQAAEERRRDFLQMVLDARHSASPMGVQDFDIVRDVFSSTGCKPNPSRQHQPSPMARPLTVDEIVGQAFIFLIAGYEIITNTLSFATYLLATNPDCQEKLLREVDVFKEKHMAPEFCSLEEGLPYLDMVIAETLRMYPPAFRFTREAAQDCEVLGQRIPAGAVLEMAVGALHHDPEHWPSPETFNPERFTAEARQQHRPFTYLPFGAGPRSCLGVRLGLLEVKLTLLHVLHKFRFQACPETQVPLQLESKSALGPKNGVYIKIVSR
In words: Thromboxane Synthase Inhibition, In Vitro. It is filed as biochemical. The settings on record: at 1 μM (value in parentheses), human platelet microsomes. The protocol:
TXA2 synthase activity is measured by following the conversion of ^14 C-prostaglandin endoperoxide (PGH2) to ^14 C-thromboxane A2 (TXA2) using microsomal fractions from human platelets as enzyme source. In the aqueous incubation medium, the TXA2 decomposes rapidly into TXB2. The amount of TXA2 synthase is adjusted so that under the conditions of the assay approximately 80-90% of the substrate, PGH2, is converted to product in control tubes. To prepare ^14 C-PGH2, ^14 C-AA (50-60 mCi/mmole; Rose Chem.) is incubated with sheep seminal vesicular gland microsomes for 1.5 minutes at 37° C. and then the ^14 C-PGH2 is extracted with diethylether, purified on columns of Sephadex LH-20 or silicic acid, and stored in acetone at -70° C. Incubations are done as follows. Sufficient ^14 C-PGH2 yield a final substrate concentration of 10 μM (~30,000 cpm) is added to the incubation tubes and then the acetone is removed under nitrogen. […] The tubes are incubated at 22° C. for 2 minutes, the reaction is stopped and then the radioactive products and the unconverted PGH2 are extracted and analyzed by thin layer chromatography. […] The amount of ^14 C-PGH2 converted to products was used as a measure of TXA2 synthase activity. Inhibitors were tested initially at a final concentration of 100 μM. Results obtained with representative compounds of the present invention in this assay are summarized hereafter in Table I, II and III.

Another experiment concerns the target T2, PAF (Canis lupus familiaris, UniProt A0A8I3NSH0).
T2 construct: followed by 2×10^7 dog platelets; from tissue; host or cells: washed platelets from citrate-treated dog blood
T2 sequence (A0A8I3NSH0 1-343): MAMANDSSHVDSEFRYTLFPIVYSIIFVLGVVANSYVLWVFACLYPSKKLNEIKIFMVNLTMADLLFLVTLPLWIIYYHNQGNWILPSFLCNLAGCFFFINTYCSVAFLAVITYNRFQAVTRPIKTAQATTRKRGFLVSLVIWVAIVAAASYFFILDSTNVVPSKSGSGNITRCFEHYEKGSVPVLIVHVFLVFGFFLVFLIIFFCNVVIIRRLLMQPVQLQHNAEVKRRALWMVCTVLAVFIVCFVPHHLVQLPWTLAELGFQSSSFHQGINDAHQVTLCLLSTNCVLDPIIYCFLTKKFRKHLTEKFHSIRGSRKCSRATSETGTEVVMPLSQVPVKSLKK
In words: PAF Radioreceptor Binding Assay. Conditions: dog platelets, 3H-PAF. The protocol: Platelet rich plasma is prepared by centrifugation of citrate-treated dog blood. Acidification to pH 6.5 with 0.15 M citric acid and centrifugation for 10 minutes at 1000 xg yields a platelet pellet which is then washed by resuspension in EDTA-Phosphate Buffered Saline (PBS) and recentrifuged. The washed platelet preparation is adjusted to 2×10^7 platelets/50 μl in 0.1% BSA-PBS. […] After mixing, incubating for 10 minutes at room temperature, and centrifuging for 1 minute in a Beckman Microfuge B (8000 xg), the pellet is removed by clipping off the tip of the tube, the platelets are solubilized with 200 μl of 50% methanol, and counted in 10 ml of Aquasol. […] Results obtained with representative compounds of the present invention in this assay are summarized hereinafter in Tables I, II and III.

The test system of a further experiment is LTD4. In words: Leukotriene D4 (LTD4) Induced Arrhythmia Test. It is filed as in vivo, guinea pig (Hartley). The settings on record: 10 mg/kg i.v. 5 min. before LTD4; conscious guinea pigs. The protocol: Male Hartley guinea pigs are anesthetized with sodium pentobarbital and prepared for monitoring direct blood pressure and injecting drugs intravenously by catheterizing the right carotid artery and right jugular vein. Blood pressure, heart rate, and Lead II ECG are monitored in the conscious animal 24 hours later.
Intravenous administration of LTD4 (2.5 pg/kg) is associated with an increase in blood pressure lasting approximately 1-2 minutes followed by a decrease lasting approximately 5-15 minutes (FIG. 3). Abnormal beats consisting of premature ventricular contractions, ST elevation or depression, atrioventricular conduction block, or dissociated p waves begin during the rise in blood pressure; the peak effect occurs approximately 40 seconds after LTD4. The percent of abnormal beats was quantitated by determining the number present during the first 2 minutes after injection and calculating the percent increase above the control level. During the hypotensive response, the animal usually collapses during the 2nd or 3rd minute after LTD4.

Where [1] appears, read: Table II, read-out: TXA2 Synth. Inhib. % at (1μM).
Where [2] appears, read: Table I, read-out: TXA2 Syn. Inhib. (1μM).
The mark [3] stands for this setting: Table III, read-out: TXA2 Synth. Inhib. % at (1 μM).

As a reminder, the IC50 is the concentration that gives 50% inhibition. As to `CCCc1c(OCCCCCC(=O)NCCCCn2ccnc2)ccc(C(C)=O)c1O`, the inhibition at 1 µM on TXA2 synthase (setting [1]) is 87%. Besides, at PAF (Table II), the IC50 turned out to be 1000 nM.
For the compound `CCCc1c(OCCCCCC(=O)NCCCCc2ccccn2)ccc(C(C)=O)c1O`, the inhibition at 1 µM at TXA2 synthase (setting [1]) was found to be 0%. On PAF (Table II), this compound gave an IC50 of 1000 nM.
The corresponding values for `CCCc1c(OCCCCCC(=O)NCCCCOc2cccnc2)ccc(C(C)=O)c1O` are 93% and 1000 nM.
Take `CCCc1c(OCCCCCC(=O)NCCc2ccncc2)ccc(C(C)=O)c1O`: the inhibition at 1 µM on TXA2 synthase (setting [1]) came to 0%. This compound had an IC50 at PAF (Table II) of 1750 nM.
Consider `CCCc1c(OCCCCC(=O)NCCCCc2cccnc2)ccc(C(C)=O)c1O` [Example 1], for which the IC50 on PAF (Table I) turned out to be 1000 nM.
Regarding `CCCc1c(OCCCCCCCC(=O)NCCCCc2cccnc2)ccc(C(C)=O)c1O` [Example 2, 8-(4-Acetyl-3-hydroxy-2-propylphenoxy)-N-[4-(3-pyridinyl)butyl]octanamide], the IC50 on PAF (Table I) amounted to 1000 nM.
`CCCc1c(OCCCCCCC(=O)NCCCCc2cccnc2)ccc(C(C)=O)c1O` [Example 3, 7-(4-Acetyl-3-hydroxy-2-propylphenoxy)-N-[4-(3-pyridinyl)butyl]heptanamide]: the inhibition at 1 µM at TXA2 synthase (setting [2]) turned out to be 93%. Further, on PAF (Table I), the half-maximal inhibitory concentration (IC50) was found to be 1000 nM.
Turning to `CCCc1c(OCCC(=O)NCCCCc2cccnc2)ccc(C(C)=O)c1O` [Example 6, 3-(4-Acetyl-3-hydroxy-2-propylphenoxy)-N-[4-(3-pyridinyl)butyl]propanamide], the inhibition at 1 µM at TXA2 synthase (setting [2]) is 77%. The compound further showed an IC50 at PAF (Table I) of 1000 nM.
`CCCc1c(OCC(=O)NCCCCc2cccnc2)ccc(C(C)=O)c1O` [Example 7, (4-Acetyl-3-hydroxy-2-propylphenoxy)-N-[4-(3-pyridinyl)butyl]acetamide]: the inhibition at 1 µM on TXA2 synthase (setting [2]) is 81%. The compound also registered an IC50 at PAF (Table I) of 1500 nM.
Take `CCCc1c(OCCCCCC(=O)NCCCCCCc2cccnc2)ccc(C(C)=O)c1O` [Example 8, 6-(4-Acetyl-3-hydroxy-2-propylphenoxy)-N-[6-(3-pyridinyl)hexyl]hexanamide]: at TXA2 synthase (setting [2]), the inhibition at 1 µM was 90%. The IC50 on PAF (Table I) is 1000 nM.
As to `CCCc1c(OCCCCCC(=O)NCCCc2cccnc2)ccc(C(C)=O)c1O` [Example 9, 6-(4-Acetyl-3-hydroxy-2-propylphenoxy)-N-[3-(3-pyridinyl)propyl]hexanamide], the inhibition at 1 µM on TXA2 synthase (setting [2]) stood at 78%. For the same compound, on PAF (Table I), the IC50 turned out to be 2000 nM.
In the case of `CCCc1c(OCCCCCC(=O)NCCc2cccnc2)ccc(C(C)=O)c1O` [Example 10, 6-(4-Acetyl-3-hydroxy-2-propylphenoxy)-N-[2-(3-pyridinyl)ethyl]hexanamide], at TXA2 synthase (setting [2]), the inhibition at 1 µM was 35%. On PAF (Table I), this compound displayed an IC50 of 500 nM.
As for `CCCc1c(OCCCC(=O)NCCCCCCc2cccnc2)ccc(C(C)=O)c1O` [Example 11, 4-(4-Acetyl-3-hydroxy-2-propylphenoxy)-N-[6-(3-pyridinyl)hexyl]butanamide], at TXA2 synthase (setting [2]), the inhibition at 1 µM was 83%. At PAF (Table I), this compound registered an IC50 of 1000 nM.
Regarding `CCCc1c(OCCCC(=O)NCCCc2cccnc2)ccc(C(C)=O)c1O` [Example 12, 4-(4-Acetyl-3-hydroxy-2-propylphenoxy)-N-[3-(3-pyridinyl)propyl]butanamide], the inhibition at 1 µM at TXA2 synthase (setting [2]) worked out at 51%. The same compound showed a half-maximal inhibitory concentration (IC50) at PAF (Table I) of 1500 nM.
With `CCCc1c(OCCCC(=O)NCCc2cccnc2)ccc(C(C)=O)c1O` [Example 13, 4-(4-Acetyl-3-hydroxy-2-propylphenoxy)-N-[2-(3-pyridinyl)ethyl]butanamide], at TXA2 synthase (setting [2]), the inhibition at 1 µM worked out at 8%. At PAF (Table I), this compound came in with an IC50 of 400 nM.
As to `CCCc1c(OCCC(C)C(=O)NCCCCc2cccnc2)ccc(C(C)=O)c1O` (stereo not drawn) [Example 22, 4-(4-Acetyl-3-hydroxy-2-propylphenoxy)-2-methyl-N-[4-(3-pyridinyl)butyl]butanamide], the inhibition at 1 µM at TXA2 synthase (setting [3]) was 70%. The compound further registered an IC50 on PAF (Table III) of 1000 nM.
Consider `CCCc1c(OCC(C)CC(=O)NCCCCc2cccnc2)ccc(C(C)=O)c1O` (stereo not drawn) [Example 23, 4-(4-Acetyl-3-hydroxy-2-propylphenoxy)-3-methyl-N-[4-(3-pyridinyl)butyl]butanamide], for which the inhibition at 1 µM on TXA2 synthase (setting [3]) is 77%. This compound also yielded an IC50 on PAF (Table III) of 200 nM.
On to `CCCc1c(OCCC(C)(C)C(=O)NCCCCc2cccnc2)ccc(C(C)=O)c1O` [Example 24, 4-(4-Acetyl-3-hydroxy-2-propylphenoxy)-2,2-dimethyl-N-[4-(3-pyridinyl)butyl]butanamide], for which the inhibition at 1 µM on TXA2 synthase (setting [3]) worked out at 55%. On PAF (Table III), this compound yielded an IC50 of 1000 nM.
`CCCc1c(OCC(C)CC(=O)NC(C)CCCc2cccnc2)ccc(C(C)=O)c1O` (stereo not drawn) [Example 26, 4-(4-Acetyl-3-hydroxy-2-propylphenoxy)-3-methyl-N-[1-methyl-4-(3-pyridinyl)butyl]-butanamide]: on TXA2 synthase (setting [3]), the inhibition at 1 µM worked out at 78%. Also, the IC50 at PAF (Table III) was found to be 1000 nM.
The corresponding values for `CCCc1c(OCCCC(=O)NC(C)CCCc2cccnc2)ccc(C(C)=O)c1O` (stereo not drawn) [Example 27, 4-(4-Acetyl-3-hydroxy-2-propylphenoxy)-N-[1-methyl-4-(3-pyridinyl)butyl]butanamide] are 77% and 300 nM.
For `CCCc1c(OCCCNC(=O)NCCCCc2cccnc2)ccc(C(C)=O)c1O` [Example 30, N-[3-(4-acetyl-3-hydroxy-2-propylphenoxy)-propyl]-N'-[4-(3-pyridinyl)butyl]urea], the inhibition at 1 µM on TXA2 synthase (setting [3]) came to 93%. For the same compound, the IC50 on PAF (Table III) came out at 700 nM.
Regarding `CCCc1c(OCCCC#CC(=O)NCCCCc2cccnc2)ccc(C(C)=O)c1O` [drawing 36], the inhibition at 1 µM on TXA2 synthase (setting [1]) came to 88%. Further, at PAF (Table II), the IC50 was found to be 500 nM.
For `CCCc1c(OCCCCCC(=O)NCCCCc2cccnc2)ccc(C(C)=O)c1O` [drawing 39], in the experiment with LTD4, the “Arrhy's (R/T)” value is recorded as 0/5, the “decrease in blood pressure (.dwnarw.XABP)” value is reported as -16 ± 6 Δmm Hg and the “increase in blood pressure (.uparw.XABP)” value is given as 6 ± 3 Δmm Hg.
For the compound `CCCc1c(OCCCC(=O)NCCCCc2cccnc2)ccc(C(C)=O)c1O` [drawing 40], in the experiment on LTD4, the “Arrhy's (R/T)” value is listed as 0/3, the “decrease in blood pressure (.dwnarw.XABP)” value is -26 ± 8 Δmm Hg and the “increase in blood pressure (.uparw.XABP)” value was 6 ± 6 Δmm Hg.
